Measured values reported in patent publication US20240067631A1, “PYRAZOLE DERIVATIVES USEFUL AS NAMPT MODULATORS” (Cytokinetics, Inc., priority 2020, published 2024).

What was measured:
human NAMPT = human NAMPT (Homo sapiens (Human), UniProt P43490); assay: Human recombinant enzyme assay (NMN fluorescence biochemical assay); conditions: 6 nM human NAMPT, 60 min; for AC1.4 Human: concentration of compound that generates 40% higher activity over basal; for EC50: concentration that gives half-maximal activation
In short: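 Recombinant human NAMPT (6 nM) with 2.5 mM ATP, […] PRPP and […] nicotinamide in HEPES pH 7.2 with DTT, CHAPS, NaCl, MgCl2; 60 min at ambient temperature. NMN derivatised with acetophenone/KOH/formic acid, fluorescence read at 355/460 nm. AC1.4 (40% above basal) and EC50 reported.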

endogenous NAMPT = endogenous NAMPT (Homo sapiens (Human), UniProt P43490); assay: Cellular NAD+ modulation assay in SH-SY5Y cells with doxorubicin; format: cell-based; conditions: Neuroblastoma SH-SY5Y cells, 40 hours, cellular NAD levels; for EC50: read-out: SY5Y (human) NAD Cell Dox EC50
Protocol: The compounds described herein were also assayed for their ability to stimulate the endogenous NAMPT in a native cellular environment in the cellular NAD+ modulation assay, which measures the ability of the compound to modulate cellular NAD levels. Increased levels of NAD are expected by compounds that permeate the cells and activate the catalytic activity of the endogenous NAMPT.
Neuroblastoma SH-SY5Y cells were grown in 1:1 mixture of Eagle's Minimum Essential Medium and F12 Medium, along with 10% fetal bovine serum, in a humidified incubator with an atmosphere of 95% air and 5% CO2 at 37° C. The assays were initiated by plating 20 μL of SH-SY5Y cells in culture medium with 0.1% fetal bovine serum, at a density of 5000 cells per well to a 384-well Corning™ BioCoat™ Poly-D-Lysine Multiwell Plates. The plates were incubated in the 37° C. incubators for a period of 5 hours. Compounds in DMSO were added to the plates in a volume of 120 nL using the Labcyte Echo Liquid Handlers. 5 μL of a 1.5 uM Doxorubicin solution in assay medium is added to each well. The plates are then incubated for 40 hours. 30 μL of a readout-solution containing 0.2 U/mL Diaphorase enzyme, 40 uM resazurin, 10 uM FMN, 0.8 U/mL Alcohol dehydrogenase, 3% ethanol, 0.4 mg/mL bovine serum albumin, 0.2% Triton X-100 in 100 mM Tris-HCl, 30 mM EDTA, pH 8.4. The plates were read for fluorescence (Excitation/Emission=540 nm/590 nm) using an EnVision plate reader after 60 mins of incubation at ambient temperature.

Sequence of human NAMPT (P43490 whole entry): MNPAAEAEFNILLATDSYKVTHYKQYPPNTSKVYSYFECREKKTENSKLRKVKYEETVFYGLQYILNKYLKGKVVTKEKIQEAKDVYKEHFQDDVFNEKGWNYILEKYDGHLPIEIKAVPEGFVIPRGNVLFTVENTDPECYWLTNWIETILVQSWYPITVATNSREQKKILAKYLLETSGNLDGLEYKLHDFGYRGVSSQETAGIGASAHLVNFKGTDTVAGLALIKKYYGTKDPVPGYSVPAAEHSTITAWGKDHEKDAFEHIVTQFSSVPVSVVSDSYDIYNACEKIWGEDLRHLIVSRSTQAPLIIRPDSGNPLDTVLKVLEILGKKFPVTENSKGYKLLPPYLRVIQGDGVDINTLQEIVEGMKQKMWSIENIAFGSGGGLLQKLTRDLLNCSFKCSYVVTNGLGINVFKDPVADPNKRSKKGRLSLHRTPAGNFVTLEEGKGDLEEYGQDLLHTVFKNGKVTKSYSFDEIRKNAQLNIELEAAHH
Sequence of endogenous NAMPT (P43490 whole entry): as above

Structure (SMILES) | AC1.4 Human (human NAMPT) [µM] | EC50 (human NAMPT) [nM] | SY5Y (human) NAD Cell Dox AC0.3 (endogenous NAMPT) [µM] | EC50 (endogenous NAMPT) [nM]
Cc1nc(C(=O)N2CCOCC2c2cccc(F)c2)nc(NCCc2cn[nH]c2)c1C (stereo not drawn) [Compound 7, (4-((2-(1H-pyrazol-4-yl)ethyl)amino)-5,6-dimethylpyrimidin-2-yl)(3-(3-fluorophenyl)morpholino)methanone] | 0.029 | 326 | 0.19 | 190
Cc1nc(C(=O)NC(C)(C)c2ccccc2)nc(NCCc2cn[nH]c2)c1C [Compound 21, 4-((2-(1H-pyrazol-4-yl)ethyl)amino)-5,6-dimethyl-N-(2-phenylpropan-2-yl)pyrimidine-2-carboxamide] | 0.0815 | 550 | 0.13 | 280
Cc1nc(C(=O)N[C@H](C)c2ccccc2Cl)nc(NCCc2cn[nH]c2)c1C [Compound 26, (R)-4-((2-(1H-pyrazol-4-yl)ethyl)amino)-N-(1-(2-chlorophenyl)ethyl)-5,6-dimethylpyrimidine-2-carboxamide] | 0.1215 | 429 | 0.26 | 720
C[C@@H](NC(=O)c1cc(Br)cc(NCCc2cn[nH]c2)n1)c1cccc(F)n1 [Compound 151, (R)-6-((2-(1H-pyrazol-4-yl)ethyl)amino)-4-bromo-N-(1-(6-fluoropyridin-2-yl)ethyl)picolinamide] |  |  | 0.17 | 
Cc1nc(C(=O)N2CCOCC2c2cccc(Cl)c2)nc(NCCc2cn[nH]c2)c1C (stereo not drawn) [Compound 12, (4-((2-(1H-pyrazol-4-yl)ethyl)amino)-5,6-dimethylpyrimidin-2-yl)(3-(3-chlorophenyl)morpholino)methanone] | 0.048 | 514 |  | 
Cc1nc(C(=O)NCCc2ccccc2)nc(NCCc2cn[nH]c2)c1C [Compound 50, 4-((2-(1H-pyrazol-4-yl)ethyl)amino)-5,6-dimethyl-N-phenethylpyrimidine-2-carboxamide] | 0.311 | 2080 |  | 
Cc1nc(C(=O)NC(c2ccccc2F)c2nccn2C)nc(NCCc2cn[nH]c2)c1C (stereo not drawn) [Compound 98, 4-((2-(1H-pyrazol-4-yl)ethyl)amino)-N-((2-fluorophenyl)(1-methyl-1H-imidazol-2-yl)methyl)-5,6-dimethylpyrimidine-2-carboxamide] | 1.3275 | 5150 |  | 
COC[C@H](NC(=O)c1nc(C)c(C)c(NCCc2cn[nH]c2)n1)c1cccc(F)c1 [Compound 49, (R)-4-((2-(1H-pyrazol-4-yl)ethyl)amino)-N-(1-(3-fluorophenyl)-2-methoxyethyl)-5,6-dimethylpyrimidine-2-carboxamide] | 0.3055 | 2100 |  | 
Cc1nc(C(=O)NC(C)c2ncco2)nc(NCCc2cn[nH]c2)c1C (stereo not drawn) [Compound 108, 4-((2-(1H-pyrazol-4-yl)ethyl)amino)-5,6-dimethyl-N-(1-(oxazol-2-yl)ethyl)pyrimidine-2-carboxamide] | 1.7855 | 18100 |  | 
Cc1nc(C(=O)N2CCOC[C@@H]2c2ccccc2)nc(NCCc2cn[nH]c2)c1C [Compound 63, (S)-(4-((2-(1H-pyrazol-4-yl)ethyl)amino)-5,6-dimethylpyrimidin-2-yl)(3-phenylmorpholino)methanone] | 0.4315 | 2280 |  | 
Cc1nc(C(=O)NCc2coc3ccccc23)nc(NCCc2cn[nH]c2)c1C [Compound 58, 4-((2-(1H-pyrazol-4-yl)ethyl)amino)-N-(benzofuran-3-ylmethyl)-5,6-dimethylpyrimidine-2-carboxamide] | 0.406 | 788 |  | 
Cc1nc(C(=O)N2CCC[C@@H]2c2cccc(F)c2)nc(NCCc2cn[nH]c2)c1Cl [Compound 148, (R)-(4-((2-(1H-pyrazol-4-yl)ethyl)amino)-5-chloro-6-methylpyrimidin-2-yl)(2-(3-fluorophenyl)pyrrolidin-1-yl)methanone] | >31 |  |  | 
Cc1nc(C(=O)NCC(F)(F)c2ccccc2)nc(NCCc2cn[nH]c2)c1C [Compound 111, 4-((2-(1H-pyrazol-4-yl)ethyl)amino)-N-(2,2-difluoro-2-phenylethyl)-5,6-dimethylpyrimidine-2-carboxamide] | 1.9995 | 18500 |  | 
Cc1nc(C(=O)N[C@@H](C)c2ccccc2Cl)nc(NCCc2cn[nH]c2)c1C [Compound 99, (S)-4-((2-(1H-pyrazol-4-yl)ethyl)amino)-N-(1-(2-chlorophenyl)ethyl)-5,6-dimethylpyrimidine-2-carboxamide] | 1.5915 | 20000 |  | 
Cc1nc(C(=O)N[C@@H](C)c2ccncc2)nc(NCCc2cn[nH]c2)c1C [Compound 87, (S)-4-((2-(1H-pyrazol-4-yl)ethyl)amino)-5,6-dimethyl-N-(1-(pyridin-4-yl)ethyl)pyrimidine-2-carboxamide] | 1.1375 | 13300 |  | 
Cc1nc(C(=O)NC(C)(C)c2cccc(F)c2)nc(NCCc2cn[nH]c2)c1C [Compound 11, 4-((2-(1H-pyrazol-4-yl)ethyl)amino)-N-(2-(3-fluorophenyl)propan-2-yl)-5,6-dimethylpyrimidine-2-carboxamide] | 0.0465 | 282 |  | 
Cc1nc(C(=O)N2CCC(c3ccccc3F)C2)nc(NCCc2cn[nH]c2)c1C (stereo not drawn) [Compound 66, (4-((2-(1H-pyrazol-4-yl)ethyl)amino)-5,6-dimethylpyrimidin-2-yl)(3-(2-fluorophenyl)pyrrolidin-1-yl)methanone] | 4.5565 | 16300 |  | 
Cc1nc(C(N)=O)nc(N(CCc2ccccc2)CCc2cn[nH]c2)c1C [Compound 1, 4-((2-(1H-pyrazol-4-yl)ethyl)(phenethyl)amino)-5,6-dimethylpyrimidine-2-carboxamide] | 0.003 | 131 |  | 
Cc1nc(C(=O)N[C@@H](C)c2cccc(F)n2)nc(NCCc2cn[nH]c2)c1C [Compound 73, (S)-4-((2-(1H-pyrazol-4-yl)ethyl)amino)-N-(1-(6-fluoropyridin-2-yl)ethyl)-5,6-dimethylpyrimidine-2-carboxamide] | 0.6455 | 3240 |  | 
Cc1nc(C(=O)N2CC3(CCC3)C2)nc(NCCc2cn[nH]c2)c1C [Compound 123, (4-((2-(1H-pyrazol-4-yl)ethyl)amino)-5,6-dimethylpyrimidin-2-yl)(2-azaspiro[3.3]heptan-2-yl)methanone] | 2.581 | 26400 |  | 
Cc1nc(C(=O)N[C@H](C)c2ccsc2)nc(NCCc2cn[nH]c2)c1C [Compound 35] | 0.231 | 617 |  | 
Cc1nc(C(=O)N[C@H]2C[C@@H](c3ccccc3)C2)nc(NCCc2cn[nH]c2)c1C [Compound 135, 4-((2-(1H-pyrazol-4-yl)ethyl)amino)-5,6-dimethyl-N-((1s,3s)-3-phenylcyclobutyl)pyrimidine-2-carboxamide] | 3.7335 | 17500 |  | 
Cc1nc(C(=O)NCCC(C)(C)C(F)(F)F)nc(NCCc2cn[nH]c2)c1C [Compound 143, 4-((2-(1H-pyrazol-4-yl)ethyl)amino)-5,6-dimethyl-N-(4,4,4-trifluoro-3,3-dimethylbutyl)pyrimidine-2-carboxamide] | 4.433 | 46000 |  | 
Cc1nc(C(=O)NC2CC(F)(F)c3ccccc32)nc(NCCc2cn[nH]c2)c1C (stereo not drawn) [Compound 79, 4-((2-(1H-pyrazol-4-yl)ethyl)amino)-N-(3,3-difluoro-2,3-dihydro-1H-inden-1-yl)-5,6-dimethylpyrimidine-2-carboxmaide] | 0.8395 | 4620 |  | 
Cc1nc(C(=O)N[C@@H](C)c2ccccn2)nc(NCCc2cn[nH]c2)c1C [Compound 137, (S)-4-((2-(1H-pyrazol-4-yl)ethyl)amino)-5,6-dimethyl-N-(1-(pyridin-2-yl)ethyl)pyrimidine-2-carboxamide] | 3.794 | 34500 |  | 
